Measured values from the supplement of paper PMC10307832.

How the values were obtained:
Assay in all cases: relative viability (nuclei count vs DMSO), 5 days (fraction); higher = more cells survive
RO-3306 + Trametinib = compound: C1=CC2=C(C=CC(=C2)C=C3C(=O)NC(=NCC4=CC=CS4)S3)N=C1 [RO-3306] + CC(=O)Nc1cccc(-n2c(=O)n(C3CC3)c(=O)c3c(Nc4ccc(I)cc4F)n(C)c(=O)c(C)c32)c1 [Trametinib] (partner 0.02 µM)
How it was run: (§1)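 Lung cancer cell lines were pin-tool dosed in 1536-well plates on the day after seeding, with either a lone drug or a fixed anchor-drug dose plus five library-drug doses (not always all listed) in √10 steps. Nuclei were counted on 4× images after 5 days. Relative viability is the ratio of treated-well to vehicle-well nuclei counts, with each value a median of duplicate plates.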

[1] = compound: O=S(=O)(c1ccccc1)N(CC(F)(F)F)c1ccc(C(O)(C(F)(F)F)C(F)(F)F)cc1 + CC(=O)Nc1cccc(-n2c(=O)n(C3CC3)c(=O)c3c(Nc4ccc(I)cc4F)n(C)c(=O)c(C)c32)c1 [Trametinib] (partner 0.02 µM)
How it was run: as §1

[2] = compound: O=S(=O)(c1ccccc1)N(CC(F)(F)F)c1ccc(C(O)(C(F)(F)F)C(F)(F)F)cc1 + Cc1nc(Nc2ncc(C(=O)Nc3c(C)cccc3Cl)s2)cc(N2CCN(CCO)CC2)n1 [Dasatinib] (partner 0.075 µM)
How it was run: as §1

RO-3306 + Lapatinib = compound: C1=CC2=C(C=CC(=C2)C=C3C(=O)NC(=NCC4=CC=CS4)S3)N=C1 [RO-3306] + CS(=O)(=O)CCNCc1ccc(-c2ccc3ncnc(Nc4ccc(OCc5cccc(F)c5)c(Cl)c4)c3c2)o1 [Lapatinib] (partner 2 µM)
How it was run: as §1

[3] = compound: O=S(=O)(c1ccccc1)N(CC(F)(F)F)c1ccc(C(O)(C(F)(F)F)C(F)(F)F)cc1 + CC(=O)c1c(C)c2cnc(Nc3ccc(N4CCNCC4)cn3)nc2n(C2CCCC2)c1=O [Palbociclib] (partner 0.5 µM)
How it was run: as §1

Row | Cell Line | relative viability (RO-3306 + Trametinib; first compound 0.01 µM) | relative viability (RO-3306 + Trametinib; first compound 0.03162 µM) | relative viability (RO-3306 + Trametinib; first compound 0.1 µM) | relative viability (RO-3306 + Trametinib; first compound 0.3162 µM) | relative viability (RO-3306 + Trametinib; first compound 1 µM) | relative viability ([1]; first compound 0.8 µM) | relative viability ([1]; first compound 2.53 µM) | relative viability ([1]; first compound 8 µM) | relative viability ([2]; first compound 0.8 µM) | relative viability ([2]; first compound 2.53 µM) | relative viability ([2]; first compound 8 µM) | relative viability (RO-3306 + Lapatinib; first compound 0.01 µM) | relative viability (RO-3306 + Lapatinib; first compound 0.03162 µM) | relative viability (RO-3306 + Lapatinib; first compound 0.1 µM) | relative viability (RO-3306 + Lapatinib; first compound 0.3162 µM) | relative viability (RO-3306 + Lapatinib; first compound 1 µM) | relative viability ([3]; first compound 0.8 µM) | relative viability ([3]; first compound 2.53 µM) | relative viability ([3]; first compound 8 µM)
1 | NCI-H596 | 0.798 | 0.773 | 0.722 | 0.793 | 0.58 | 0.746 | 0.794 | 0.724 | 0.594 | 0.566 | 0.52 | 0.892 | 0.83 | 1.08 | 1.07 | 1.17 |  |  | 
2 | NCI-H650 | 0.981 | 0.939 | 0.921 | 1.1 | 0.941 | 1.1 | 0.983 | 0.782 | 0.368 | 0.425 | 0.479 | 0.867 | 0.728 | 0.774 | 1.06 | 1.01 | 0.322 | 0.329 | 0.27
3 | NCI-H2228 | 0.541 | 0.43 | 0.436 | 0.62 | 0.281 | 0.693 | 0.371 | 0.429 | 0.415 | 0.401 | 0.363 | 1.24 | 0.574 | 0.942 | 0.826 | 0.542 | 0.989 | 0.639 | 0.722
4 | NCI-H661 | 0.691 | 0.503 | 0.584 | 0.586 | 0.567 | 0.677 | 0.574 | 0.533 | 1.03 | 0.886 | 0.832 | 0.412 | 0.469 | 0.532 | 0.536 | 0.605 | 0.426 | 0.386 | 0.396
5 | A549 |  |  |  |  |  |  |  |  |  |  |  | 1.16 | 0.953 | 0.955 | 1.05 | 0.971 |  |  | 
6 | NCI-H1299 |  |  |  |  |  |  |  |  |  |  |  | 1 | 1.03 | 0.977 | 0.977 | 0.986 |  |  | 
7 | Calu-6 |  |  |  |  |  |  |  |  |  |  |  | 1.27 | 1.12 | 0.981 | 1.18 | 1.06 |  |  | 
8 | NCI-H1563 |  |  |  |  |  |  |  |  | 0.402 | 0.427 | 0.435 | 1.03 | 0.911 | 0.862 | 0.979 | 0.922 |  |  | 
9 | NCI-H2342 | 0.988 | 0.676 | 0.749 | 0.843 | 0.732 | 0.917 | 0.854 | 0.861 | 0.286 | 0.31 | 0.326 |  |  |  |  |  | 0.592 | 0.545 | 0.502
10 | NCI-H441 | 0.451 | 0.341 | 0.368 | 0.439 | 0.428 | 0.387 | 0.348 | 0.423 | 0.868 | 0.501 | 0.577 |  |  |  |  |  | 0.212 | 0.16 | 0.211
11 | SW 900 | 0.885 | 0.742 | 0.752 | 0.663 | 0.804 | 0.787 | 0.828 | 0.607 | 0.625 | 0.563 | 0.478 |  |  |  |  |  | 0.409 | 0.421 | 0.5
12 | EBC-1 |  |  |  |  |  |  |  |  |  |  |  | 0.206 | 0.264 | 0.211 | 0.193 | 0.218 |  |  | 
13 | ChaGo-K-1 | 0.954 | 0.829 | 0.859 | 0.856 | 0.559 | 0.998 | 0.862 | 0.884 | 0.706 | 0.648 | 0.637 |  |  |  |  |  | 1 | 0.895 | 0.877
